This is an account of results in US8193224B2, “Medicinal composition for prevention or treatment of parasitic protozoan infection” (Fujifilm Corporation, priority 2004, dated 2012).

Molecules are shown by their SMILES. Like-named read-outs stand apart in the source and are kept apart here.

Common to all, as to format: cell-based
For data set [1], the system named is Plasmodium falciparum FCR-3 strain. Briefly: Drug sensitive-Plasmodium falciparum growth inhibition screening test. To be noted: for EC50: Plasmodium falciparum, FCR3, Erythrocyte, read-out: 50% growth inhibition concentration P. falciparum FCR; for Selective toxicity: chemotherapy index = EC50 mouse FM3A cells / EC50 drug sensitive P. falciparum. How it is done: In the present example, protozoa of Plasmodium falciparum FCR-3 strain was used. RPMI-1640 medium sterilized with a filter was used in the experiment. pH was adjusted to 7.4, and human serum was added to be 10%. Malarial parasites were cultured under 5% O2 concentration, 5% CO2 concentration, 90% N2 concentration, and at a temperature of 36.5° C.
Cultured malarial parasite infected-erythrocytes were collected by centrifugation, and washed in a medium containing serum. Non-infected erythrocytes were added so that the primary infection rate is 0.3%. Hematocrit level at that time was 3%. The compounds of the present invention to be used in the test and the positive target drugs (chloroquine, quinine) were dissolved in dimethylsulfoxide (DMSO) to make a test solution of a predetermined concentration. The test solution was added in an amount of 5 to 10 μl in a 24-well culture plate. To the control, DMSO was added in an amount of 10 μL/well. Test solutions were taken by duplicates. Subsequently, Plasmodium falciparum culture solution previously prepared to a predetermined concentration was added, pipetted quietly, and suspended in the medium similarly. Culture plate was cultured for 72 hours in a CO2—O2—N2(5%, 5%, 90%) incubator. Thin layer smear preparations were prepared for each well, and after performing Diff-Quick staining, the preparations were measured with a microscope (oil immersion, 1,000×), and malarial parasite infection rates of the test solution added-group and of the control group were calculated. Growth inhibition rate was calculated with the following formula from the malarial parasite infection rate obtained in the above, to obtain a 50% growth inhibition concentration (EC50). Growth inhibition rate (%)={1−(b−a)/(c−a)}×100 a: early infection rate b: infection rate when test solution was added c: infection rate of the control

Data set [2] can be described thus: Growth inhibition test of mouse FM3A cells. How it is done:
F28-7 strain which is a wild-type of the mouse breast cancer derived FM3A cell was used. As for a medium, immobilized fetal bovine serum was added to a ES medium at 2%, which medium was cultured under CO2 concentration 5%, at 37° C. Doubling time of FM3A cells under that condition was approximately 12 hours. Pre-culture was conducted and cells which have entered the logarithmic growth phase were diluted in a medium to be 5×10^4 cells/mL Those prepared when measuring malarial activity were used as a sample. Sample solution was added in an amount of to 10 μL in a 24-well culture plate (the final concentration was 1×10^−4 to 1×10^−5, by adding media etc). Compounds were taken by duplicates, and wells added with 10 μL DMSO were prepared at the same time as a control. Next, cultured cell suspension previously prepared was added in an amount of 990 to 995 μL, pipetted quietly and suspended in a medium similarly. After culturing 48 hours, the cells were counted with a cell controller (CC-108, Toa. Medical Electrics) for each well. Growth rate was calculated with the following formula, to obtain a 50% growth inhibition rate (EC50). Growth rate (%)={(C−A)/(B−A)}×100 A: primary cell count B: cell count of the control, 2 days after C: cell count of wells added with a sample, 2 days after
Cell growth inhibiting activity was calculated from cell count of wells added with a sample, and cell count of the control.

Data set [3] has as its system Plasmodium falciparum K1 strain. Briefly: Chloroquine resistant-Plasmodium falciparum growth inhibition screening test. The procedure:
In the present example, protozoa of Plasmodium falciparum K1 strain was used. RPMI-1640 medium sterilized with a filter to which human serum was added to be 5%, was used in the experiment. Malarial parasites were cultured under 3% O2 concentration, 4% Co2 concentration, 93% N2 concentration, and at a temperature of 37° C.
The compounds of the present invention to be used in the present test and the positive target drug (chloroquine) were dissolved in DMSO to make a test solution of a predetermined concentration. Cultured malarial parasite infected-erythrocytes were collected by centrifugation, and diluted with non-infected erythrocyte so that the early infection rate is 0.15%. Hematocrit level at that time was 2.5%. 200 μL of malaria infected solution was added to wells of a 96-well culture plate, and adjusted by adding a test solution containing drug of a predetermined concentration or a drug-free DMSO. Test solutions were taken by duplicates. After culturing for 48 hours at 37° C., 0.5 μCi radioactive tritium (3H)-labeled hypoxanthine was added to each well. After further culturing for 24 hours under the same conditions, it was collected on a glass fiber filter and washed with distilled water. Radiation intensity was measured with a beta plate liquid scintillation counter (Wallac), and malarial parasite infection rates of the test solution added group and of the control group were calculated. Growth inhibition rate was calculated with the following formula based on the malarial parasite infection rate obtained in the above, to obtain a 50% growth inhibition concentration (EC50). Growth inhibition rate (%)={1−(b−a)/(c−a)}×100 a: early infection rate b: infection rate when test solution was added c: infection rate of the control

Data set [4] is described as follows: Growth inhibition test of rat L6 cells. The following applies: L6 cells (rat skeletal myoblast), Alamar Blue (Table 2), read-out: 50% growth inhibition concentration Cytotoxicity L6. The procedure:
Rat derived-L6 cells (rat skeletal myoblast cell) were used. As medium, RPMI1640 medium was supplemented so that L-glutamin (200 mM) is 1%, and fetal bovine serum 10%, and the medium was cultured under CO2 concentration 5%, at 37° C. The compounds of the present invention and the target drugs to be used in the test were dissolved in DMSO, to make a test solution of a predetermined concentration. Pre-culture was conducted and medium containing cells which have entered the logarithmic growth phase was taken to wells of a 96-well culture plate. Then, a test solution containing drug of a predetermined concentration or a drug-free DMSO was added. Test solutions were taken by duplicates. Culture plate was cultured for 72 hours in an incubator, to test the growth inhibition activity. Test was conducted as follows.
10 μl of Alamar Blue aqueous solution was added to each well, and the resultant was further cultured for 2 hours. Next, the culture plate was placed on a fluorescent micro-plate reader (Spectramax Gemeni XS; US Molecular Device), radiated at an excited wavelength of 536 nm. Fluorescent intensity was measured at 588 nm, and residual rate of L6 cells of the test solution added group, and that of the control was calculated. Based on the cell residual rate obtained in the above, growth inhibition rate to L6 cells was calculated, to obtain a 50% growth inhibition concentration (EC50). Growth inhibition rate (%)={(C−A)/(B−A)}×100 A: primary cell count B: cell count of control, 3 days after C: cell count of wells added with a sample, 3 days after […]

In data set [5] the test system is Trypanosoma brucei rhodensiense (STIB 900 strain). Briefly: African trypanosome protozoa growth inhibition screening test. To be noted: Trypanosoma brucei, STIB900; STIB 900 strain, blood stream form, 72 hours, Alamar Blue; read-out: 50% growth inhibiting concentration Trypanosoma brucei rhod. The procedure: In the present example, protozoa of Trypanosoma brucei rhodensiense (STIB 900 strain), a trypamastigote living in blood stream, was used. The medium used in the experiment was a MEM medium which was sterilized with a filter and supplemented with 25 mM N-2-hydroxyethylpiperazine-2-ethansulfonic acid […]), 1 g/L glucose, 1% MEM non-essential amino acid, 0.2 mM 2-mercaptoethanol, 2 mM sodium pyruvate, 0.1 mM hypoxanthine, and 15% heat-treated horse serum. The protozoa was cultured in an atmosphere of CO2 concentration 5%, at a temperature of 37° C.
The compounds of the present invention to be used in the present test and the positive target drug (melarsoprol) were dissolved in DMSO to make a test solution of a predetermined concentration. A medium containing 8×10^3 protozoa, and a test solution containing a drug of a predetermined concentration or a drug-free DMSO were added to wells of a 96-well culture plate, and subsequently, medium was added so that the amount in each well becomes 100 μL. Test solutions were taken by duplicates. After culturing the culture plate for 72 hours in an incubator, growth inhibition activity was tested. Test was conducted as follows. 10 μL of Alamar Blue aqueous solution was added to each well, and the resultant was further cultured for 2 hours. Next, the culture plate was placed on a fluorescent micro-plate reader (Spectramax Gemeni XS; US Molecular Device), radiated at an excited wavelength of 536 nm. Fluorescent intensity was measured at 588 nm, to calculate the trypanosome protozoa infected rate of the test solution added-group, and of the control group. From the protozoan infection rate obtained in the above, growth inhibition rate was calculated with the following formula, to obtain a 50% growth inhibition concentration (EC50). Growth inhibition rate (%)={1−(b−a)/(c−a)}×100 a: early infection rate b: infection rate when test solution was added c: infection rate of the control
A general note: Alamar Blue is a resazurin reagent that responds to reducing activity.

For data set [6], the system named is Leishmania donovani (MHOM/ET/67/L82 strain). Briefly: Leishmania protozoa growth inhibition screening test. To be noted: Leishmania donovani; MHOM/ET/67/L82 strain amastigote, pH 5.4, 72 hours, Alamar Blue; read-out: 50% growth inhibition concentration Leishmania donovani. How it is done: In the present example, Leishmania donovani (MHOM/ET/67/L82 strain) was used. Protozoa was subcultured in Syrian Golden hamster, from which an amastigote was obtained. In the experiment, SM medium supplemented with 10% heat-treated bovine fetal serum was used, which was adjusted to pH 5.4, and cultured in an atmosphere of 5% CO2 concentration, at 37° C.
The compounds of the present invention to be used in the present test and the positive target drug (miltefosine) were dissolved in DMSO to make a test solution of a predetermined concentration. After adding a medium containing a predetermined number of protozoa to wells of a 96-well culture plate and pre-treating, concentration of the amastigote was measured with CASY cell analysis system (Scharfe, Germany). Then, test solution containing a drug of a predetermined concentration or a drug-free DMSO was added. Test solutions were taken by duplicates. After culturing the culture plate for 72 hours in an incubator, growth inhibition activity was tested. Test was conducted as follows.
10 μL of Alamar Blue aqueous solution was added to each well, and the resultant was further cultured for 2 hours. Next, the culture plate was placed on a fluorescent micro-plate reader (Spectramax Gemeni XS; US Molecular Device), radiated at an excited wavelength of 536 nm. Fluorescent intensity was measured at 588 nm, and infection rate of leishmania protozoa of the test solution added-group and control was calculated, to obtain a 50% growth inhibition concentration (EC50). Growth inhibition rate (%)={1−(b−a)/(c−a)}×100 a: early infection rate b: infection rate when test solution was added c: infection rate of the control

For data set [7], the system named is Trypanosoma brucei rhodensiense (STIB 900 strain). Briefly: African trypanosome protozoa growth inhibition screening test. The following applies: chemotherapy index = EC50 rat L6 cells / EC50 African trypanosome protozoa.
In data set [8] the test system is Leishmania donovani (MHOM/ET/67/L82 strain). Briefly: Leishmania protozoa growth inhibition screening test. To be noted: chemotherapy index = EC50 rat L6 cells / EC50 leishmania protozoa.
The mark [9] stands for this setting: drug sensitive FCR-3 strain, infected erythrocytes, cultured 72 hours, microscopy.

For `CCN(CC)CCCC(C)Nc1ccnc2cc(Cl)ccc12` (stereo not shown) [chloroquine, reference compound], the EC50 in data set [1] (72 h) worked out at 18 nM. The compound also had a Selective toxicity in data set [1] of 1780. Besides, the EC50 at 48 h in data set [2] (mouse FM3A cells, 48 hours, cell count (Table 1), read-out: 50% growth inhibition concentration Cytotoxicity FM3A) is 32000 nM.
On to `CCn1c(=O)/c(=C/C=C2\Sc3ccc4ccccc4c3N2C)s/c1=C\c1sc2ccc3ccccc3c2[n+]1CC` [A-2], for which the EC50 in data set [1] (setting [9]) amounted to 100 nM. Moreover, in data set [1], the Selective toxicity is 8. The EC50 at 48 h in data set [2] (mouse) was found to be 800 nM.
Taken in the same sequence, the figures for `CCN1C=CC=C/C1=C\C=c1/s/c(=C\c2cc[n+](CC)c3ccccc23)n(CC)c1=O` [A-11] were 600 nM, over 23 and over 14000 nM.
On to `CCN1CCS/C1=C\C=c1/s/c(=C\c2sc3c4ccccc4ccc3[n+]2CCO)n(CC)c1=O` [A-17], for which the EC50 was found to be 38 nM in data set [3] (Plasmodium falciparum, 72 h, chloroquine resistant K1 strain, 3H-hypoxanthine, 48 + 24 hours, read-out: 50% growth inhibition concentration P. falciparum K1); 93 nM in data set [5]; 11 nM in data set [6]. For the same compound, the results for the Selective toxicity in data set [3] (chemotherapy index = EC50 rat L6 cells / EC50 chloroquine resistant P. falciparum), in data set [7] and in data set [8] were 1400, 570 and 4800, respectively. Also, the EC50 at 72 h in data set [4] came out at 53000 nM.
With `C=C[C@H]1C[N@@]2CC[C@H]1C[C@H]2[C@H](O)c1ccnc2ccc(OC)cc12` [quinine, reference compound], the EC50 in data set [1] (setting [9]) is 110 nM. The compound further gave a Selective toxicity in data set [1] of 910. Besides, in data set [2] (mouse), the EC50 at 48 h amounted to 100000 nM.
As for `CCn1c(=O)/c(=C/C=C2\Sc3ccc4ccccc4c3N2C)s/c1=C\c1scc(C)[n+]1CC` [A-3], the EC50 in data set [1] (setting [9]) came out at 75 nM. In addition, in data set [1], the Selective toxicity is 20. In addition, the EC50 at 48 h in data set [2] (mouse) stood at 1500 nM.
